Experimental data taken from US11739063B2, “DREADD actuators” (The United States of America, as represented by the …, priority 2018, dated 2023).
“Also recorded” adds a separate entry of the source. Where two headings read alike, the source gives them in different places.

Columns and labels:
[1] = molecular target: T1, hM4Di (Gi1) (Homo sapiens, UniProt P08173, A203G/Y113C); assay: BRET assay of Gi1 activation in HEK-293 cells with hM4Di; format: cell-based; details: for EC50: BRET change 5 minutes after addition; for Gi1 activation (BRET ratio): cells with hM4Di versus cells without DREADDs
T1 construct: host or cells: HEK-293
T1 sequence (P08173 1-479 Y113C/A203G): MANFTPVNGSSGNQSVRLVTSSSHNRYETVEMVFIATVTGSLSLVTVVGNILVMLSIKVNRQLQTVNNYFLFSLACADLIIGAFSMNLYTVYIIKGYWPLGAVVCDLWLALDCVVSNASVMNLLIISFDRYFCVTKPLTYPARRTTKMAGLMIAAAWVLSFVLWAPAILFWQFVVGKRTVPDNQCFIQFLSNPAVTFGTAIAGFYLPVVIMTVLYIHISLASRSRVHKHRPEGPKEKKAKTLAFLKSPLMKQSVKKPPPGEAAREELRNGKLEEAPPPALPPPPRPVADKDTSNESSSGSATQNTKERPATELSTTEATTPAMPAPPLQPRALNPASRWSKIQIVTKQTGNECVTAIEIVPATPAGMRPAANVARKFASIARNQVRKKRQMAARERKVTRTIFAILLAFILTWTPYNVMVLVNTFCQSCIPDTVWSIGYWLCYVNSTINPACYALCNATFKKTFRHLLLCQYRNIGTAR
Procedure: (§1) Bioluminescence resonance energy transfer (“BRET”) assays were performed to detect receptor ligand-induced Gi/o protein activation. […] Forty-eight hours after transfection cells were harvested, washed and resuspended in phosphate-buffered saline (“PBS”). Approximately 200,000 cells/well were distributed in 96-well plates, and 5 μM Coelenterazine H (substrate for luciferase) was added to each well.
(§2) Results were calculated for the BRET change (BRET ratio for the corresponding compound minus BRET ratio in the absence of the compound) 5 minutes after the addition of the compounds.

[2] = molecular target: T2, hM4Di (Go1) (Homo sapiens, UniProt P08173, A203G/Y113C); assay: BRET assay of Go1 activation in HEK-293 cells with hM4Di; format: cell-based; details: for EC50: BRET change 5 minutes after addition; for Go1 activation (BRET ratio): cells with hM4Di versus cells without DREADDs
T2 construct: host or cells: HEK-293
T2 sequence (P08173 1-479 Y113C/A203G): T1 sequence (P08173 1-479 Y113C/A203G)
Procedure: as §1, §2

[3] = molecular target: T3, hM3Dq (Homo sapiens, UniProt P20309, A239G/Y149C); assay: Calcium accumulation assay (GCaMP6f) in HEK293 cells with hM3Dq; details: for hM3Dq activation (fluorescence, calcium accumulation): cells with hM3Dq versus cells without DREADDs
T3 sequence (P20309 whole entry Y149C/A239G): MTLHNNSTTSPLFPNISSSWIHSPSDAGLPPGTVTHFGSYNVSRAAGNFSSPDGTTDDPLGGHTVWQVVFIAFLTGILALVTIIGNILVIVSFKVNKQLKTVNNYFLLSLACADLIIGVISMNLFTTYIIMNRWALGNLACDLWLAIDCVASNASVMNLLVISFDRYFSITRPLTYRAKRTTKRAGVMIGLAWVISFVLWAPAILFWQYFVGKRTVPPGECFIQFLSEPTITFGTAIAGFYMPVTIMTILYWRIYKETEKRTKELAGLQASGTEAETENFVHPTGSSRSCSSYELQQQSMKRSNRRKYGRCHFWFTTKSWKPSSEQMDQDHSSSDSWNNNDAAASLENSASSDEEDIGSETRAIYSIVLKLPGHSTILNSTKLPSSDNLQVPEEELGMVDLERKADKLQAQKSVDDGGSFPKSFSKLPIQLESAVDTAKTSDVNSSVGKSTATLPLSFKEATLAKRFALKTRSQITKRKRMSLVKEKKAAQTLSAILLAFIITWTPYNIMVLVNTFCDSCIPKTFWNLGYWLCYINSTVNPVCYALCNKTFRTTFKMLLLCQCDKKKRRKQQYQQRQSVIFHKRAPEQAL
Procedure: The changes in fluorescence were read every 18 seconds for 5 minutes.

[4] = system: D1-hM3Dq, D1-hM4Di or WT mice; assay: FDG-PET brain metabolic mapping (DREAMM); format: in vivo
Procedure: The study was set up as follows. Mice (D1-hM3Dq, D1-hM4Di or WT littermates) were habituated to experimenter handling and fasted 16 hours before the experiment. On the day of the experiment, mice received an IP injection of vehicle (1 ml/kg) and were placed back into their home cages. Ten minutes later, mice were injected (IP) with 11 MBq of 2-deoxy-2-[^18F]fluoro-D-glucose (FDG, Cardinal Health, Westmont, Ill.) and placed back into their home cages. After 30 minutes, mice were anesthetized with 1.5% isoflurane, placed on a custom-made bed of a NANOSCAN small animal PET/CT scanner (Mediso Medical Imaging Systems) and scanned for 20 min on a static acquisition protocol, followed by a CT scan. […] In all cases, the PET data were reconstructed and co-registered to an MRI template as described above. Voxel-based repeated measures with Student's t-test comparing baseline to drug were performed, and the resulting parametric images were filtered for statistically significant (p<0.05) clusters larger than 100 contiguous voxels. All statistical parametric mapping analyses were performed using MATLAB R2016 (Mathworks, Chicago, Ill.) and SPM12 (University College London).

[5] = molecular target: T3, hM3Dq; assay: Radioligand binding assay, [3H]clozapine competition, hM3Dq membranes; set-up: host or cells: HEK-293; details: for Ki: HEK-293 membranes, 2.5 nM [3H]clozapine, Cheng-Prusoff; for Binding to the tested DREADDs (in words): hM3Dq and hM4Di
Procedure: (§3) HEK-293 cells were transfected with 5 μg/dish of pAAV plasmids encoding for hM3Dq (available from Addgene, Cambridge, Mass., plasmid #89149), hM4Di (available from Addgene, Cambridge, Mass., plasmid #89150) or a control vector and harvested 48 hours after transfection. […] The protein was quantified by the bicinchoninic acid method. […] Microscint-20 scintillation liquid ([…]) was added to the filter plates, plates were incubated overnight at room temperature and radioactivity counts were determined in a MICROBETA^2™ (PerkinElmer, Waltham, Mass.) plate counter with an efficiency of 41%. Competition curves were fitted to a one binding site model and Ki values were calculated using the Cheng-Prusoff equation.

[6] = molecular target: T4, hM4Di (Homo sapiens, UniProt P08173, A203G/Y113C); assay: Radioligand binding assay, [3H]clozapine competition, hM4Di membranes; set-up: host or cells: HEK-293; details: HEK-293 membranes, 2.5 nM [3H]clozapine, Cheng-Prusoff
T4 sequence (P08173 1-479 Y113C/A203G): T1 sequence (P08173 1-479 Y113C/A203G)
Procedure: as §3

[7] = system: mice with D1-hM3Dq receptors; assay: Locomotor activity assay (open-field test); format: in vivo; details: 0.01, 0.1, 1 mg/kg intraperitoneal; compared with clozapine
Procedure: Transgenic male and female mice (25-30 g, offspring of D1-Cre (heterozygous)×R26-hM3Dq/mCitrine (heterozygous) crossing) either heterozygous for both loci (CRE+, het het) or wild type for D1-Cre (CRE−, wt het) were tested for locomotor activity. The mice were injected (intraperitoneal) with the indicated dose of clozapine, compound I(g), or vehicle (buffered saline).

[8] = system: DREADDs (hM3Dq, hM4Di) and endogenous clozapine-binding sites; assay: Autoradiography, [3H]clozapine displacement in brain sections of wild-type and transgenic DREADD mice; details: about 3.5 nM [3H]clozapine, WT
Procedure: Flash frozen brain tissue was sectioned (20 μm) on a cryostat and thaw mounted onto ethanol-washed glass slides. […] Following incubation, the slides were washed with an incubation buffer for 5 mins (2×) followed by a 30 second dip in ice-cold deionized H2O. The slides were then air-dried, placed in a […]™ (GE Healthcare, UK) autoradiography cassette, covered with a BAS-TR2025 Storage Phosphor Screen (GE Healthcare, UK), exposed for 3-5 days, and imaged using a phosphorimager.

[9] = molecular target: T4, hM4Di; assay: hM4Di-driven inhibition of light-evoked neuronal activation; format: in vivo; details: 0.1 mg/kg

Row | EC50 [1] [nM] | EC50 [2] [nM] | EC50 [3] [nM] | Ki [5] [nM] | Ki [6] [nM] | Compound | also measured
1 | 0.067 | 0.063 | 1.43 |  |  | [2H]C([2H])(C)N1CCN(C2=Nc3cc(Cl)ccc3Nc3ccccc32)CC1 [Compound 13, reference compound] | 
2 | 2.7 | 1.7 | 1.66 |  |  | c1ccc2c(c1)N=C(N1CCNCC1)c1ccccc1N2 [Compound 21, reference compound] | Brain metabolic activity (FDG-PET) ([4]; WT mice, 1 mg/kg): significant changes in brain metabolic activity; also recorded: decreased metabolic activity of multiple networks
3 |  |  |  | 10.5 | 23.5 | CCN1CCN(C2=Nc3cc(Cl)ccc3Nc3ccc(F)cc32)CC1 [Compound I(a), 8-chloro-11-(4-ethylpiperazin-1-yl)-2-fluoro-5H-dibenzo[b,e][1,4]diazepine] | Recruitment of whole-brain functional networks (FDG-PET) ([4]; D1-hM3Dq and D1-hM4Di mice, 0.1 mg/kg, n=4 per condition): opposing and differential recruitment of whole-brain functional networks
4 |  |  |  | 33.5 | 118 | CCN1CCN(C2=Nc3ccccc3Nc3ccc(F)cc32)CC1 [Compound I(b), 11-(4-Ethylpiperazin-1-yl)-2-fluoro-5H-dibenzo[b,e][1,4]diazepine] | 
5 |  |  |  | 51.4 | 51.3 | CCN1CCN(C2=Nc3cc(Cl)ccc3Nc3cc(F)ccc32)CC1 [Compound I(c), 8-Chloro-11-(4-ethylpiperazin-1-yl)-3-fluoro-5H-dibenzo[b,e][1,4]diazepine] | 
6 |  |  |  | 101 | 149 | CCN1CCN(C2=Nc3ccccc3Nc3cc(F)ccc32)CC1 [Compound I(d), 11-(4-Ethylpiperazin-1-yl)-3-fluoro-5H-dibenzo[b,e][1,4]diazepine] | 
7 |  |  |  | 4.8 | 14.2 | CCN1CCN(C2=Nc3ccccc3Nc3cccc(F)c32)CC1 [Compound I(e), 11-(4-Ethylpiperazin-1-yl)-1-fluoro-5H-dibenzo[b,e][1,4]diazepine] | 
8 |  |  |  | 23.7 | 12.9 | CCN1CCN(C2=Nc3cc(F)ccc3Nc3ccccc32)CC1 [Compound I(f), 11-(4-Ethylpiperazin-1-yl)-8-fluoro-5H-dibenzo[b,e][1,4]diazepine] | 
9 | 0.24 | 0.8 | 5.15 | 1.7 | 8.7 | CCN1CCN(C2=Nc3cc(Cl)ccc3Nc3cccc(F)c32)CC1 [Compound I(g), 8-Chloro-11-(4-ethylpiperazin-1-yl)-1-fluoro-5H-dibenzo[b,e][1,4]diazepine] | Gi1 activation (BRET ratio) [1]: activate Gi1; Go1 activation (BRET ratio) [2]: activate Go1; Reduction of locomotor activity (distance traveled) [7]: more effective than clozapine at reducing locomotor activity; Binding to the tested DREADDs (in words) [5]: especially effective at binding the tested DREADDs; hM3Dq activation (fluorescence, calcium accumulation) [3]: effective at activating hM3Dq
10 | 0.073 | 0.14 | 2.64 | 1.9 | 3.6 | CCN1CCN(C2=Nc3cc(Cl)ccc3Nc3c(F)cccc32)CC1 [Compound I(h), 8-Chloro-11-(4-ethylpiperazin-1-yl)-4-fluoro-5H-dibenzo[b,e][1,4]diazepine] | Displacement of [3H]clozapine binding ([8]; at 10 nM): selectively displaced [^3H]clozapine binding to DREADDs but not to endogenous sites; Displacement of [3H]clozapine binding ([8]; at 1 μM): completely displaced [^3H]clozapine binding to both DREADDs and endogenous clozapine-binding sites; Gi1 activation (BRET ratio) [1]: activate Gi1; Go1 activation (BRET ratio) [2]: activate Go1; Reduction of locomotor activity (distance traveled) [7]: more effective than clozapine at reducing locomotor activity; Brain metabolism change (DREAMM) ([4]; D1-hM3Dq mice, 0.1 mg/kg IP): decreased metabolism; Brain metabolism change (DREAMM) ([4]; D1-hM4Di mice, 0.1 mg/kg IP): increased metabolism; Brain metabolic changes (FDG-PET) ([4]; WT mice, 0.1 mg/kg IP): no significant brain metabolic changes; Inhibition of light-evoked neuronal activation [9]: rapid and potent hM4Di-driven inhibition; Binding to the tested DREADDs (in words) [5]: especially effective at binding the tested DREADDs; hM3Dq activation (fluorescence, calcium accumulation) [3]: effective at activating hM3Dq

Row | Compound | EC50 [1] [nM] | EC50 [2] [nM] | EC50 [3] [nM] | Ki [5] [nM] | Ki [6] [nM] | also measured
11 | C[N+]1([O-])CCN(C2=Nc3cc(Cl)ccc3Nc3ccccc32)CC1 [CNO, clozapine n-oxide, reference compound] | 13 | 3.1 |  |  |  | EC50 ([3]; read-out: EC50 value for hM3Dq, mean, calcium accumulation, fluorescence): 11.3 nM
